# Data reported in patent publication US8569229B2, “Compositions and methods which modulate G-protein signaling for the treatment of inflammatory disorders such as asthma and allergic conjunctivitis” (The Children's Hospital of Philadelphia, priority 2008, dated 2013).
# “Also recorded” adds a separate entry of the source. Ends that are not written are not given here.
# How the values were obtained:
# [1] = system: OVA-sensitized rabbits; test: IL-13 and IFN-γ in BALF samples of OVA-sensitized, OVA-challenged rabbits; format: in vivo, rabbit; conditions: pretreated OVA-sensitized+OVA challenged rabbits
# Protocol: (§1) In vivo studies were conducted wherein adult NZW rabbits were initially sensitized with weekly intra-peritoneal (i.p.) injections of 2.5 mg OVA and 10 mg of alum adjuvant for 4-5 weeks, and non-sensitized (control) rabbits received alum alone. Both the OVA sensitized and control animals were then challenged with either vehicle (saline) or aerosolized OVA delivered via a nebulizer. The following day, while mechanically ventilated under general anesthesia/paralysis, the rabbits' broncho-constrictor responses to intravenous (i.v.) bolus injections of cumulatively increasing doses of methacholine (MCh) were determined and induced changes in respiratory system resistance (Rrs), measured as previously described (Grunstein et al. J. Appl. Physiol: Respirat. Environ. Exercise Physiol. 57:1238-1246, 1984). Lung lavage was then performed to obtain bronchoalveolar lavage fluid (BALF) samples, and the lungs were excised for histological examination in H&E-stained paraffin-embedded 4 micron sections.
# [2] = system: OVA-sensitized rabbits; test: Lung histopathology in OVA-sensitized, OVA-challenged rabbits; format: in vivo, rabbit; conditions: pretreated OVA-sensitized+OVA challenged rabbits
# Protocol: as §1, with “Both” for “In vivo studies were conducted wherein adult NZW rabbits were initially sensitized with weekly intra-peritoneal (i.p.) injections of 2.5 mg OVA and 10 mg of alum adjuvant for 4-5 weeks, and non-sensitized (control) rabbits received alum alone. Both”, “[…].” for “Respirat.”
# [3] = system: OVA-sensitized rabbits; test: In vivo bronchoconstrictor responses to methacholine (Rrs) in OVA-sensitized, OVA-challenged rabbits; design: species or system rabbit; conditions: 1 mg/Kg by nebulizer 2 hr prior to OVA challenge, measured 24 hr after challenge
# Protocol: as §1, with “Both” for “In vivo studies were conducted wherein adult NZW rabbits were initially sensitized with weekly intra-peritoneal (i.p.) injections of 2.5 mg OVA and 10 mg of alum adjuvant for 4-5 weeks, and non-sensitized (control) rabbits received alum alone. Both”, “[…].” for “Respirat.”
# [4] = system: human ASM cells; test: Assay of cAMP PDE activity in ASM cell lysates; format: cell-based; conditions: for effect of pretreatment on PGE2-induced increase in PDE activity: PGE2 100 nM x 24 hr, peptides 30 μM (Example III)
# [5] = system: rabbit ASM tissues; test: Relaxation responsiveness to isoproterenol in isolated rabbit ASM tissues half-maximally contracted with ACh; conditions: for effect of pretreatment on PGE2-induced impaired relaxation to isoproterenol: PGE2 100 nM x 24 hr; for relaxation responses to isoproterenol in control serum-exposed tissues pretreated with the agent: control (non-asthmatic) serum, 24 hr; for effect of pretreatment on salmeterol-induced impaired relaxation to isoproterenol: salmeterol 10 μM x 24 hr
# Text: Detection of PDE4D5 mRNA transcripts: Total RNA was extracted from the cultured ASM cells using the TRIzol method (Invitrogen), and cDNAs were isolated by RT-PCR using the SuperScript First Strand Synthesis System kit from Invitrogen, with the following oligonucleotide primer sets (Integrated DNA Technologies): for PDE4D5, 5′-[…]-3′ (forward; SEQ ID NO: 2) and 5′-[…]-3′ (reverse; SEQ ID NO: 3); and for β-actin, 5′-[…]-3′ (forward; SEQ ID NO: 4) and 5′-[…]-3′ (reverse; SEQ ID NO: 5). The reaction volume was 20 μl and cycling conditions used were 35 cycles of 30 sec denaturation at 95° C., followed by 30 sec annealing at 60° C. and elongation at 72° C. for 30 sec. Ex-Tag (Takara Biotechnology) was used as DNA polymerase. […] Following protein extraction and the addition of gel-loading buffer, the extracts were loaded on a 10% SDS-PAGE gel for immunoblotting after transfer to a PVDF membrane. The membranes were then incubated overnight with monoclonal mouse anti-human primary antibodies directed against phospho-CREB and -ATF1, phospho-ERK1/2, or α-actin, and levels were detected by ECL after a 1-hr incubation with a 1:2,000 dilution of HRP-conjugated rabbit anti-mouse secondary antibody, followed by exposure to autoradiography film. The protein band intensities were quantified by densitometry. siRNA-mediated knockdown of PKA: ASM cells were seeded into 6-well plates and, at ˜40% confluency, the medium was replaced with the reduced serum-containing medium, Opti-MEM (Invitrogen). The cells were then transfected twice during a 24-hr interval with two pools of three siRNA duplexes, each pool targeted against the human PKAα or PKAγ catalytic subunits (Santa Cruz Biotechnology; sc-36240 and sc-36236, respectively), or with a non-targeted control (scrambled) siRNA duplex, using Oligofectamine (Invitrogen) as the transfection agent. The pools of siRNAs were applied to each well at a final concentration of 100 nM for each siRNA preparation. […] Transfection of ASM cells with adeno-βARK-ct: Adenovirus (adeno)-βARK-ct, an adenovirus vector encoding the βARK1 carboxyl-terminal domain which blocks Gβγ signaling (25,26), and adeno-β-gal, an adenovirus vector expressing lacZ as a negative control, were constructed using the AdenoX adenovirus construction kit (BD-Clontech). Recombinant plaques were isolated and propagated in HEK293 cells (Invitrogen), with viral purification using the cesium chloride gradient method, and viral titer detected by plaque assay. The ASM cells were transfected with either of the adenoviral vectors at a multiplicity of infection (MOI) of 100, and experiments were conducted at 24 hr following adenoviral tranfections. Pharmacodynamic studies of constrictor and relaxation responsiveness in rabbit ASM tissues: Following initial sedation and subsequent general anesthesia with intramuscular injections of xylazine (10 mg/kg) and ketamine (50 mg/kg), respectively, rabbits were sacrificed with an intravenously administered overdose of sodium pentobarbital (100 mg/kg). As described previously (16), the tracheae were excised via open thoracotomy, the loose connective tissue and epithelium were scraped and removed, and the tracheae were divided into 8 ring segments, each of 6-8 mm in length. […] After these incubations, the tissues were placed in organ baths containing modified Krebs-Ringer solution aerated with 5% CO2 in oxygen (pH of 7.35-7.40), and attached to force transducers to continuously monitor isometric tension. […] The constrictor and relaxation dose-response curves were analyzed with respect to each tissue's maximal isometric contractile force (Tmax) to ACh and maximal relaxation response (Rmax) to isoproterenol from the initial level of active cholinergic contraction. Statistical analyses: Results are expressed as mean±SE values. Comparisons between groups were made using the Student's t-test (two-tailed) or ANOVA with Tukey's post-test analysis, where appropriate.
# [6] = listed as Gβγ inhibitory peptide
# [7] = listed as anti-Gβγ cell-permeable inhibitory peptide
substance,measurement,setting,value
MPS-Phosducin-like protein C terminus (AAVALLPAVLLALLAVTDQLGEDFFAVDLEAFLQEFGLLPEKE; also: MPS attached) [anti-Gβγ peptide],effect on OVA challenge-induced decrease in BALF IFN-γ,[1],prevents
same,effect on OVA challenge-induced increase in BALF IL-13,[1],prevents
same,effect on pulmonary inflammatory response (peribronchial and parenchymal inflammatory cell infiltration),[2],markedly suppressed to a similar extent; also recorded: markedly suppresses
same,effect on airway constrictor hyper-responsiveness (Rrs responses to MCh),[3],largely abrogated
same,effect on airway constrictor hyper-responsiveness (Rrs responses to MCh),[3]; listed as MPS-conjugated anti-G βγ peptide,prevented to a similar degree
same,effect of pretreatment on PGE2-induced increase in PDE activity,[4]; [6],completely ablated
same,effect of pretreatment on PGE2-induced increase in PDE activity,[4]; [7],completely abrogated
same,effect of pretreatment on salmeterol- and isoproterenol-induced increase in PDE activity,[4]; salmeterol or isoproterenol 10 μM x 24 hr,completely abrogated; also recorded: ablated
same,effect of pretreatment on PGE2-induced impaired relaxation to isoproterenol,[5]; [6],prevents
same,effect of pretreatment on PGE2-induced impaired relaxation to isoproterenol,[5]; [7],prevented
same,relaxation responses to isoproterenol in control serum-exposed tissues pretreated with the agent,[5]; [6],enhances
same,relaxation responses to isoproterenol in control serum-exposed tissues pretreated with the agent,[5]; listed as Gβγ-inhibitory peptide,somewhat increased
same,effect of pretreatment on salmeterol-induced impaired relaxation to isoproterenol,[5],prevented
same,effect of pretreatment on salmeterol-induced impaired relaxation to isoproterenol,[5]; listed as MPS-conjugated anti-Gβγ peptide,ablated
same,effect of pretreatment on impaired relaxation to isoproterenol in allergic asthmatic (AS) serum-exposed tissues,[5]; tissues passively sensitized 24 hr with AS rabbit serum,prevented
same,effect of the agent alone on relaxation responses to isoproterenol,[5]; vehicle-exposed control tissues,no significant effect
